SMILES strings stand for the structures. Counter-ions that a name gives are not always drawn. Like-named read-outs stand apart in the source and are kept apart here.

Assay [1] concerns the target T1, SARS-CoV-2 PLpro (nsp3 1564–1878) (Severe acute respiratory syndrome coronavirus 2, UniProt P0DTD1). The experiment in a line: biochemical. The note with it: low concentration screen, read-out: % of control remaining. The arrangement: FRET-quenched peptide (Pro3) cleavage by PLpro, 10 min pre-incubation, slope over 20 min, normalised to no-compound control.
In assay [2] the target is T1, SARS-CoV-2 PLpro (nsp3 1564–1878). Description: biochemical. The arrangement: FRET-quenched peptide (Pro3) cleavage by PLpro, 10 min pre-incubation, slope over 20 min, normalised to no-compound control. The note with it: high concentration screen, read-out: % of control remaining.

As for `CO[C@@]12[C@H](COC(N)=O)C3=C(C(=O)C(C)=C(N)C3=O)N1C[C@@H]1N[C@@H]12` [Mitomycin C], the remaining activity at 1.25 µM amounted to 110% in assay [1] (Well no.=1672), 98.9% in assay [1] (Well no.=3563) and 98.5% in assay [1] (Well no.=7364). Besides, the results for the remaining activity at 3.75 µM in assay [2] (Well no.=1672), in assay [2] (Well no.=3563) and in assay [2] (Well no.=7364) were 110%, 100% and 102%, respectively.

For the compound `O=C1c2c(O)ccc(O)c2C(=O)c2c(NCCNCCO)ccc(NCCNCCO)c21` [Mitoxantrone HCl], the remaining activity at 1.25 µM in assay [1] (Well no.=4904) is 93.4%. Also, the remaining activity at 3.75 µM in assay [2] (Well no.=4904) is 91.1%.

In the case of `O=C1c2c(O)ccc(O)c2C(=O)c2c(NCCNCCO)ccc(NCCNCCO)c21` [Mitoxantrone], the figures for the remaining activity at 1.25 µM in assay [1] (Well no.=1028) and in assay [1] (Well no.=1997) were 100% and 104%, respectively. Also, the remaining activity at 3.75 µM in assay [2] (Well no.=1028) came out at 101%; in assay [2] (Well no.=1997), 103%.

As to `NC(=O)c1ncn([C@@H]2O[C@H](CO)[C@@H](O)[C@H]2O)c1O` [Mizoribine], the remaining activity at 1.25 µM in assay [1] (Well no.=876) is 105%. Also, in assay [2] (Well no.=876), the remaining activity at 3.75 µM came out at 107%.

As to `O=C(NCCN1CCOCC1)c1ccc(Cl)cc1` [Moclobemide], the remaining activity at 1.25 µM in assay [1] (Well no.=4640) turned out to be 99.1%. For the same compound, the remaining activity at 3.75 µM in assay [2] (Well no.=4640) stood at 98.5%.

Regarding `CCOC(=O)[C@H](CCc1ccccc1)N[C@@H](C)C(=O)N1Cc2cc(OC)c(OC)cc2C[C@H]1C(=O)O` [Moexipril (hydrochloride)], in assay [1] (Well no.=8028), the remaining activity at 1.25 µM stood at 98.4%. The remaining activity at 3.75 µM in assay [2] (Well no.=8028) came to 97.8%.

Turning to `CCOC(=O)[C@H](CCc1ccccc1)N[C@@H](C)C(=O)N1Cc2cc(OC)c(OC)cc2C[C@H]1C(=O)O` [Moexipril HCl], the remaining activity at 1.25 µM in assay [1] (Well no.=4760) was determined as 97.7%. For the same compound, the remaining activity at 3.75 µM in assay [2] (Well no.=4760) came to 97.7%.

Turning to `CCOC(=O)CC(=O)N1CCSC1COc1ccccc1OC` (centres unmarked) [Moguisteine], the remaining activity at 1.25 µM in assay [1] (Well no.=4931) came to 98.7%. In addition, the remaining activity at 3.75 µM in assay [2] (Well no.=4931) was determined as 95.6%.

Consider `O=c1c(-n2ccnn2)c[nH]n1-c1cc(N2CCOCC2)ncn1` [Molidustat (BAY 85-3934)], for which, in assay [1] (Well no.=8542), the remaining activity at 1.25 µM was 101%. For the same compound, in assay [2] (Well no.=8542), the remaining activity at 3.75 µM was found to be 111%.

Take `CCc1c(C)[nH]c2c1C(=O)C(CN1CCOCC1)CC2` (centres unmarked) [Molindone (hydrochloride)]: the remaining activity at 1.25 µM was 98.8% in assay [1] (Well no.=6905) and 95.5% in assay [1] (Well no.=7928). For the same compound, the remaining activity at 3.75 µM is 93.3% in assay [2] (Well no.=6905) and 98.2% in assay [2] (Well no.=7928).

`CCOC(=O)[N-]c1c[n+](N2CCOCC2)no1` [Molsidomine]: the remaining activity at 1.25 µM in assay [1] (Well no.=780) worked out at 110%; in assay [1] (Well no.=1803), 97.9%. In addition, the remaining activity at 3.75 µM was determined as 104% in assay [2] (Well no.=780) and 96.1% in assay [2] (Well no.=1803).

With `C[C@@H]1C[C@H]2[C@@H]3CCC4=CC(=O)C=C[C@]4(C)[C@@]3(Cl)[C@@H](O)C[C@]2(C)[C@@]1(OC(=O)c1ccco1)C(=O)CCl` [Mometasone furoate], the remaining activity at 1.25 µM is 103% in assay [1] (Well no.=4668) and 92.3% in assay [1] (Well no.=6700). The remaining activity at 3.75 µM was 103% in assay [2] (Well no.=4668) and 89.6% in assay [2] (Well no.=6700).

Turning to `CCOC(=O)C1=C(C)NC(=S)NC1c1cccc(O)c1` (centres unmarked) [Monastrol], in assay [1] (Well no.=891), the remaining activity at 1.25 µM worked out at 106%. In addition, the remaining activity at 3.75 µM in assay [2] (Well no.=891) was 106%.

With `CC[C@@]1([C@@H]2O[C@@H]([C@H]3O[C@@](O)(CO)[C@H](C)C[C@@H]3C)C[C@@H]2C)CC[C@H]([C@]2(C)CC[C@]3(C[C@H](O)[C@@H](C)[C@@H]([C@@H](C)[C@@H](OC)[C@H](C)C(=O)O)O3)O2)O1` [Monensin], the remaining activity at 1.25 µM in assay [1] (Well no.=3413) was found to be 94.8%. Further, the remaining activity at 3.75 µM in assay [2] (Well no.=3413) worked out at 99.5%.

Take `C[C@H]1C(=O)O[C@@H]2CCN3CC=C(COC(=O)[C@](C)(O)[C@]1(C)O)[C@H]23` [Monocrotaline]: the remaining activity at 1.25 µM in assay [1] (Well no.=3777) is 102%. In assay [2] (Well no.=3777), the remaining activity at 3.75 µM is 103%.

`CC(C)(O)c1ccccc1CC[C@@H](SCC1(CC(=O)O)CC1)c1cccc(/C=C/c2ccc3ccc(Cl)cc3n2)c1` [Montelukast (sodium)]: the remaining activity at 1.25 µM in assay [1] (Well no.=6325) stood at 105%. Further, in assay [2] (Well no.=6325), the remaining activity at 3.75 µM is 98%.

With `O=c1c(O)c(-c2ccc(O)cc2O)oc2cc(O)cc(O)c12` [Morin hydrate], the remaining activity at 1.25 µM in assay [1] (Well no.=5680) worked out at 99.9%. Also, in assay [2] (Well no.=5680), the remaining activity at 3.75 µM was 99.5%.

Regarding `O=c1c(O)c(-c2ccc(O)cc2O)oc2cc(O)cc(O)c12` [Morin], the remaining activity at 1.25 µM in assay [1] (Well no.=1022) was determined as 96.8%. In addition, the remaining activity at 3.75 µM in assay [2] (Well no.=1022) worked out at 93.4%.

With `N=C(N=C(N)N)N1CCOCC1` [Moroxydine.HCl], in assay [1] (Well no.=1539), the remaining activity at 1.25 µM stood at 104%. Besides, the remaining activity at 3.75 µM in assay [2] (Well no.=1539) came to 105%.

On to `CCOc1cc(N)c(Cl)cc1C(=O)NCC1CN(Cc2ccc(F)cc2)CCO1` (centres unmarked) [Mosapride (citrate)], for which the remaining activity at 1.25 µM in assay [1] (Well no.=6657) turned out to be 104%. The remaining activity at 3.75 µM in assay [2] (Well no.=6657) worked out at 109%.

Take `CCOc1cc(N)c(Cl)cc1C(=O)NCC1CN(Cc2ccc(F)cc2)CCO1` (centres unmarked) [Mosapride citrate]: in assay [1] (Well no.=4807), the remaining activity at 1.25 µM was 101%. Moreover, in assay [2] (Well no.=4807), the remaining activity at 3.75 µM amounted to 103%.

Regarding `CC1(C)CNc2cc(NC(=O)c3cccnc3NCc3ccncc3)ccc21` [Motesanib Diphosphate (AMG-706)], the remaining activity at 1.25 µM in assay [1] (Well no.=4611) was 101%. The remaining activity at 3.75 µM in assay [2] (Well no.=4611) came out at 100%.

As for `CC1(C)CNc2cc(NC(=O)c3cccnc3NCc3ccncc3)ccc21` [Motesanib], in assay [1] (Well no.=2697), the remaining activity at 1.25 µM came to 104%. Further, the remaining activity at 3.75 µM in assay [2] (Well no.=2697) stood at 103%.

On to `CCCN(CCC)C(=O)C1=Cc2ccc(-c3ccc(C(=O)N4CCCC4)cc3)cc2N=C(N)C1` [Motolimod], for which, in assay [1] (Well no.=8413), the remaining activity at 1.25 µM was found to be 103%. The remaining activity at 3.75 µM in assay [2] (Well no.=8413) came out at 99%.

Consider `COc1c(N2C[C@@H]3CCCN[C@@H]3C2)c(F)cc2c(=O)c(C(=O)O)cn(C3CC3)c12` [Moxifloxacin HCl], for which the remaining activity at 1.25 µM in assay [1] (Well no.=4878) was found to be 98.1%. The remaining activity at 3.75 µM in assay [2] (Well no.=4878) came out at 93.6%.

As to `COc1c(N2C[C@@H]3CCCN[C@@H]3C2)c(F)cc2c(=O)c(C(=O)O)cn(C3CC3)c12` [Moxifloxacin.HCl], the remaining activity at 1.25 µM in assay [1] (Well no.=1568) is 97.8%. Besides, the remaining activity at 3.75 µM in assay [2] (Well no.=1568) came out at 96.5%.

For the compound `CC(=O)Oc1cc(C(C)C)c(OCCN(C)C)cc1C` [Moxisylyte (hydrochloride)], in assay [1] (Well no.=7424), the remaining activity at 1.25 µM was found to be 94%. Also, the remaining activity at 3.75 µM in assay [2] (Well no.=7424) was 97.7%.

For the compound `CC(=O)Oc1cc(C(C)C)c(OCCN(C)C)cc1C` [Moxisylyte hydrochloride], in assay [1] (Well no.=976), the remaining activity at 1.25 µM was 103%. The remaining activity at 3.75 µM in assay [2] (Well no.=976) stood at 101%.

The values are drawn from paper PMC8286840, “Identifying SARS-CoV-2 antiviral compounds by screening for small molecule inhibitors of Nsp3 papain-like protease” (Biochemical Journal, 2021).
